Values quoted from earlier work, collected in patent US20080081052A1, “Topical compositions containing solubilized allantoin and related methods” (priority 2006, published 2008).

Conditions: expressed in g/100 g water @ 25 degree C; no solubilization enhancer

Structure (SMILES): NC(=O)NC1NC(=O)NC1=O (stereo not shown) [allantoin, (2,5-dioxo-4-imidazolidinyl) urea]
- solubility of allantoin in water: 0.45%
